Data taken from patent US20060025448A1, “Hair growth stimulators” (CADILA HEALTHCARE LIMITED, priority 2004, published 2006).

Key:
male C57BL/6J mice = assay: Effect on hair growth (bald area) in high-fat diet fed male C57BL/6J mice; format: in vivo; conditions: 10 mg/kg orally; for growth of body hair (in words): high-fat diet fed male C57BL/6 mice, 28 days
Method: (§1) The C57BL/6 mice were housed on a lightdark cycle in a room with temperature (22±2° C.) and humidity control. They were fed either a high-fat diet (HFD) (49% fat, 18% protein, 33% carbohydrate) or a standard mouse diet (STD) (8% fat, 19% protein, 73% carbohydrate). Six-week-old C57BL/6J male mice were given HFD or STD diets for 17 wks before drug treatment started. […] After this, mice were weighed and treated as per the following three groups, while the diet treatment continued.
(§2) High-fat diet fed & vehicle treated (HFD-V), • High-fat diet fed & treated with 10 mg/kg Compound 2 (HFD-R 10 mg) • High-fat diet fed & treated with 10 mg/kg Compound 1 (HD-ZY 10 mg) • Compound 1 and Compound 2 were administered orally in distilled water with 0.1% Tween 80 one hour before the onset of the dark phase.
(§3) The animals were observed daily. Body weights were recorded daily, and the animals were photographed on 28th day on the back, The results are mentioned in Table 1 and Table 2.

[1] = Effect on body weight in high-fat diet fed male C57BL/6J mice; format: in vivo; conditions: for effect on body weight (in words): high-fat diet fed male C57BL/6 mice
Method: as §1, §2, §3

## Cc1c(C(=O)NN2CCCCC2)nn(-c2ccc(Cl)cc2Cl)c1-c1ccc(Cl)s1.Cl [Compound 1, Hydrochloride salt of 5-(5-Chloro-thiophen-2-yl)-1-(2,4-dichloro-phenyl)-4-methyl-1H-pyrazole-3-caxboxylic acid piperidin-1-ylamide]
Male C57BL/6J mice; high-fat diet fed male C57BL/6J mice, after 28th day of dosing, n = 6
  bald area (where hair growth or pigmentation has not appeared), Area (Mean ± Standard Error Mean): 0.011 ± 0.223 cm^2
Male C57BL/6J mice; 10 mg/kg
  growth of body hair (in words): significantly enhanced the growth of body hair
Male C57BL/6J mice; listed as compound 1, 10 mg/kg
  growth of body hair (in words): able to stimulate hair growth
[1]; high-fat diet fed male C57BL/6J mice, 10 mg/kg orally, 28 days, n = 6
  Change in Body Weight in 28 days versus Day 0: -1.7 ± 0.5 g
[1]; high-fat diet fed male C57BL/6J mice, 10 mg/kg orally, Day 28, n = 6
  Body Weight on Day 28: 26.9 ± 1.1 g
[1]; high-fat diet fed male C57BL/6J mice, 10 mg/kg orally, versus vehicle group, n = 6
  Change in Body Weight versus HFD-V: -3.3 ± 1.8 g
[1]; high-fat diet fed male C57BL/6J mice, Day 0 (baseline before treatment), n = 6
  Body Weight on Day 0: 29.2 ± 1.1 g
[1]; 10 mg/kg orally, 28 days, 10 mg/kg
  effect on body weight (in words): decrease in body weight
[1]; 10 mg/kg orally, 28 days, listed as compound 1, 10 mg/kg
  effect on body weight (in words): decreasing body weight
